According to patent publication US4668782A, “Anhydrous crystalline or crystalline hemihydrate monohydrate or trihydrate of cephalosporin derivative” (Teijin Limited, priority 1984, dated 1987):
≈ marks a conversion by molar mass, not a printed value. Read-outs that look alike come from different tables or passages of the source.

Legend:
[1] = format: physicochemical; conditions: sealed brown vials
Experimental: (2) The trihydrate, monohydrate, hemihydrate, and anhydride were sealed up in the brown vials respectively and stored at 85° C. and were analyzed by high performance liquid chromatography later. The result is shown in the following table (residuum percentage: %).

moisture uptake = format: physicochemical
[2] = tested on: Gram-positive and Gram-negative bacterials; conditions: Japanese Laid-Open Patent Publication No. 219292/1984; cited from earlier work
physchem = conditions: water
[3] = tested on: Pseudomonas aeruginosa IFO 3445; experiment: antibacterial activity, agar dilution plating method (MIC); format: cell-based; conditions: IFO3445
Experimental: (§1) (ii) The antibacterial activity of the obtained amorphous substance was determined according to the ordinary agar dilution plating method (see the Chemotherapy, 23(8), 1 (1975), of Japan Chemotherapy Society).

[4] = tested on: Staphylococcus aureus FDA 209 PJC-1; experiment: as above; format: cell-based; conditions: FDA209
Experimental: as §1

Typhoid bacillus 901 = experiment: as above; format: cell-based
Experimental: as §1

[5] = tested on: Bacillus prodigiosus IAM 1184; experiment: as above; format: cell-based; conditions: IAM1184
Experimental: as §1

[6] = tested on: Coliform bacillus NIHJ-JC-2; experiment: as above; format: cell-based; conditions: NIHJJC2
Experimental: as §1

[7] = tested on: Aerobacter aerogenes ATCC 13048; experiment: as above; format: cell-based; conditions: Klebsiella aerogenes, ATCC13048
Experimental: as §1

Proteus vulgaris OX-19 = experiment: as above; format: cell-based; conditions: OX19
Experimental: as §1

[8] = tested on: various kinds of Gram-positive and Gram-negative bacterias; experiment: antibacterial activity against Gram-positive and Gram-negative bacteria (general statement); format: cell-based

Row | SMILES | residuum percentage ([1]; 240 h) [%] | residuum percentage ([1]; 576 h) [%] | conversion upon being allowed to take up moisture (moisture uptake) | other results
1 | CO/N=C(\C(=O)N[C@@H]1C(=O)N2C(C(=O)[O-])=C(C[N+]34CCC(CC3)CC4)CS[C@H]12)c1csc(N)n1 [Hemihydrate, (6R,7R)-7-[(Z)-2-(2-aminothiazole-4-yl)-2-methoxyiminoacetoamido]-3-(1-quinuclidiniummethyl)-3-cephem-4-carboxylate] | 98.3 | 86.3 | reversionally converted back to the original trihydrate | 
2 | CO/N=C(\C(=O)N[C@@H]1C(=O)N2C(C(=O)[O-])=C(C[N+]34CCC(CC3)CC4)CS[C@H]12)c1csc(N)n1 [Trihydrate, (6R,7R)-7-[(Z)-2-(2-aminothiazole-4-yl)-2-methoxyiminoacetoamido]-3-(1-quinuclidiniummethyl)-3-cephem-4-carboxylate] | 97.0 | 86.8 |  | 
3 | CO/N=C(\C(=O)N[C@@H]1C(=O)N2C(C(=O)[O-])=C(C[N+]34CCC(CC3)CC4)CS[C@H]12)c1csc(N)n1 [cephalosporin derivative A, (6R,7R)-7-[(Z)-2-(2-aminothiazole-4-yl)-2-methoxyiminoacetoamido]-3-(1-quinuclidiniummethyl)-3-cephem-4-carboxylate] |  |  |  | antibacterial activity [2]: strong antibacterial activity; solubility (physchem): ~300 mg/mL (≈ 592000 µM)
4 | CO/N=C(\C(=O)N[C@@H]1C(=O)N2C(C(=O)[O-])=C(C[N+]34CCC(CC3)CC4)CS[C@H]12)c1csc(N)n1 [Anhydride, (6R,7R)-7-[(Z)-2-(2-aminothiazole-4-yl)-2-methoxyiminoacetoamido]-3-(1-quinuclidiniummethyl)-3-cephem-4-carboxylate] | 97.5 | 86.0 | reversionally converted back to the original trihydrate | 
5 | CO/N=C(\C(=O)N[C@@H]1C(=O)N2C(C(=O)[O-])=C(C[N+]34CCC(CC3)CC4)CS[C@H]12)c1csc(N)n1 [Amorphous substance, (6R,7R)-7-[(Z)-2-(2-aminothiazole-4-yl)-2-methoxyiminoacetoamido]-3-(1-quinuclidiniummethyl)-3-cephem-4-carboxylate] | 0 | 0 |  | 
6 | CO/N=C(\C(=O)N[C@@H]1C(=O)N2C(C(=O)[O-])=C(C[N+]34CCC(CC3)CC4)CS[C@H]12)c1csc(N)n1 [Monohydrate, (6R,7R)-7-[(Z)-2-(2-aminothiazole-4-yl)-2-methoxyiminoacetoamido]-3-(1-quinuclidiniummethyl)-3-cephem-4-carboxylate] | 96.1 | 85.5 | reversionally converted back to the original trihydrate | 
7 | CO/N=C(\C(=O)N[C@@H]1C(=O)N2C(C(=O)[O-])=C(C[N+]34CCC(CC3)CC4)CS[C@H]12)c1nsc(N)n1 [cephalosporin derivative B, (6R,7R)-7-[(Z)-2-(5-amino-1-thia-2,4-diazole-3-yl)-2-methoxyiminoacetoamido]-3-(1-quinuclidiniummethyl)-3-cephem-4-carboxylate] |  |  |  | solubility (physchem): ~300 mg/mL (≈ 591000 µM); MIC [3]: 0.4 µg/mL (≈ 0.788 µM); MIC [4]: 3.1 µg/mL (≈ 6.11 µM); MIC (Typhoid bacillus 901): 0.2 µg/mL (≈ 0.394 µM); MIC [5]: 0.1 µg/mL (≈ 0.197 µM); MIC [6]: 0.05 µg/mL (≈ 0.0985 µM); MIC [7]: 0.1 µg/mL (≈ 0.197 µM); MIC (Proteus vulgaris OX-19): 0.2 µg/mL (≈ 0.394 µM); antibacterial activity [8]: strong antibacterial activity
